Key:
IL-6 = assay: Mouse IL6 quantification assay, LPS-stimulated RAW 264.7 macrophages; format: cell-based; conditions: for inhibition at 30 µM: RAW264.7, 30 μM, LPS-stimulated RAW 264.7 macrophages; for inhibition at 10 µM: RAW264.7, 10 μM, LPS (100 ng/ml) added concurrently, 5 hours, RAW 264.7
Description: (§1) Cell lines: Abelson murine leukemia virus transformed macrophage cell line RAW 264.7 was purchased from ATCC and grown in complete DMEM-High Glucose medium supplemented with penicillin (100 U/mL), streptomycin (100 μg/mL), and 10% heat-inactivated FBS at 37° C. in a humidified incubator with 5% CO2.
(§2) Method: Cells were plated at 25000-40000 cells/well density in a 96-well plate. After a 3-hour incubation, macrophages were starved with DMEM plus 0.5% FBS overnight. The next day the small molecules to be tested were added to the cells in the final concentration of 30 μM (with 0.3% DMSO) 3 hours prior to LPS stimulation (100 ng/ml). After LPS stimulation cells were incubated at 37° C. for 16 h. Alternatively, compounds were also tested at 10 μM and LPS (100 ng/ml) was added concurrently and incubated 5 hours at 37° C. At the end of the incubation periods, culture medium was collected and production of LPS-induced TNF-α and IL-6 cytokine was measured using ELISA detection kits.
(§3) Sandwich ELISA: The ELISA Immunoassays Quantikine Mouse TNF-alpha (catalog number MTA00B) and IL6 (catalog number M6000B) were purchased from R&D Systems Inc., Minneapolis, MN. These 4.5 hours solid phase ELISAs were used to measure mouse TNF-α or IL-6 levels in macrophages culture supernatants. Assays were executed according to the manufacturer specifications.

TNF-α = assay: Mouse TNF alpha quantification assay, LPS-stimulated RAW 264.7 macrophages; format: cell-based; conditions: for inhibition at 30 µM: RAW264.7, 30 μM, LPS-stimulated RAW 264.7 macrophages; for inhibition at 10 µM: RAW264.7, 10 μM, LPS (100 ng/ml) added concurrently, 5 hours, RAW 264.7, read-out: TNFα % Inhibition
Description: as §1, §2, §3

Structure (SMILES)	inhibition at 30 µM (IL-6) [%]	inhibition at 30 µM (TNF-α) [%]	inhibition at 10 µM (IL-6) [%]	inhibition at 10 µM (TNF-α) [%]
CO[C@H]1CCC(Nc2nc(-c3nccn3C)nc3sc(-c4ccn(C)n4)c(-c4ccccc4)c23)C1 (stereo partly shown) [drawing 683]	76 to 100	76 to 100		
COc1cccc(-c2sc3nc(-c4nccn4C)nc(N4CCC(OC)C4)c3c2-c2ccccc2)c1F (stereo not shown) [drawing 719]	76 to 100	76 to 100		
COC(=O)c1nc(-c2nccn2C)nc(O)c1O [drawing 743]	0	0		
O=C(c1nc(-c2ccccn2)nc(O)c1O)N1CCCC1 [drawing 731]	0	1 to 25		
Cn1ccc(-c2sc3nc(-c4nccn4C)nc(N[C@@H]4CC[C@H](O)C4)c3c2-c2ccccc2)n1 (racemic) [drawing 774]			26 to 50	1 to 25
COCCNC(=O)c1sc2nc(-c3nccn3C)nc(N[C@@H]3CC[C@H](OC)C3)c2c1-c1ccccc1 [drawing 790]			51 to 75	1 to 25
CO[C@H]1CC[C@@H](Nc2nc(-c3nccn3C)nc3sc(-c4ccn(C)n4)c(C)c23)C1 [drawing 780]			76 to 100	1 to 25
COc1cccc(-c2sc3nc(-c4nccn4C)nc(N[C@@H]4CC[C@H](OC)C4)c3c2-c2ccccc2)c1F [drawing 749]			26 to 50	1 to 25
Cc1c(-c2ccn(C)n2)sc2nc(-c3nccn3C)nc(NCCOC(=O)N(C)C)c12 [drawing 783]			51 to 75	26 to 50
COc1cccc(-c2sc3nc(-c4nccn4C)nc(N4CCC(OC)C4)c3c2-c2cscn2)c1 (stereo not shown) [drawing 694]	1 to 25	1 to 25		
COc1cccc(Cn2ccnc2-c2nc(O)c3scc(-c4ccccn4)c3n2)c1 [drawing 670]	76 to 100	76 to 100		
COC1CCN(c2nc(-c3nccn3C)nc3sc(-c4ccccc4Cl)c(-c4cscn4)c23)C1 (stereo not shown) [drawing 692]	51 to 75	0		
COCCCNc1nc(-c2nccn2C)nc2sc(-c3ccn(C)n3)c(-c3ccc(OC)cc3)c12 [drawing 688]	76 to 100	0		
COCCn1ccnc1-c1nc(O)c2scc(-c3ccccn3)c2n1 [drawing 667]	76 to 100	76 to 100		
CO[C@@H]1CCC(Nc2nc(-c3nccn3C)nc3sc(-c4ccn(C)n4)c(-c4ccccc4)c23)C1 (stereo partly shown) [drawing 684]	76 to 100	76 to 100		
COc1cccc(-c2sc3nc(-c4nccn4C)nc(N[C@@H]4CC[C@H](OC)C4)c3c2C)c1F [drawing 759]			1 to 25	1 to 25
COc1cccc(-c2csc3c(O)nc(-c4nccn4C)nc23)c1Cl [drawing 663]	76 to 100	26 to 50		
Cn1ccc(-c2sc3nc(-c4nccn4C)nc(N4CCC5(CCOC5)C4)c3c2-c2ccccc2)n1 (stereo not shown) [drawing 686]	51 to 75	0		
CO[C@H]1C[C@@H](Nc2nc(-c3nccn3C)nc3sc(-c4ccn(C)n4)c(-c4ccccc4)c23)C1 [drawing 770]			76 to 100	76 to 100

Structure (SMILES)	inhibition at 30 µM (IL-6) [%]	inhibition at 30 µM (TNF-α) [%]	inhibition at 10 µM (IL-6) [%]	inhibition at 10 µM (TNF-α) [%]
COCCN(C)C(=O)c1nc(-c2ccccn2)nc(O)c1O [drawing 735]	0	1 to 25		
COc1c(O)nc(-c2ccccn2)nc1Nc1ccccc1 [drawing 745]			76 to 100	1 to 25
COC1CCN(c2nc(-c3nccn3C)nc3sc(-c4ccn(C)n4)c(-c4ccccc4)c23)CC1 [drawing 687]	26 to 50	26 to 50		
O=C(c1nc(-c2ccccn2)nc(O)c1O)N1CCOCC1 [drawing 728]	0	1 to 25		
COc1c(O)nc(-c2ccccn2)nc1Oc1ccc(C(=O)N(C)C)cc1 [drawing 744]			1 to 25	1 to 25
COC1CCN(c2nc(-c3nccn3C)nc3sc(-c4ccc(CO)cc4)c(-c4ccccc4)c23)C1 (stereo not shown) [drawing 711]	76 to 100	76 to 100		
Cn1ccnc1-c1nc(O)c(O)c(C(=O)N2CCCCC2)n1 [drawing 741]	0	1 to 25		
COCCNc1nc(-c2nccn2C)nc2sc(-c3cccc(OC)c3)c(-c3ccc(OC)cc3)c12 [drawing 696]	76 to 100	76 to 100		
COC1CCN(c2nc(-c3nccn3C)nc3sc(-c4ccc(N)nc4C)c(-c4ccccc4)c23)C1 (stereo not shown) [drawing 712]	1 to 25	0		
Oc1nc(-c2nccn2Cc2ccccn2)nc2c(-c3ccccn3)csc12 [drawing 669]	76 to 100	51 to 75		
COC1CCN(c2nc(-c3nccn3C)nc3sc(-c4ccnc(N(C)C)c4)c(-c4ccccc4)c23)C1 (stereo not shown) [drawing 715]	76 to 100	76 to 100		
COc1c(O)nc(-c2ccccn2)nc1Oc1ccccc1 [drawing 726]	76 to 100	1 to 25		
CC(C)CN(C)C(=O)c1nc(-c2ccccn2)nc(O)c1O [drawing 733]	0	0		
Oc1nc(-c2cn3ccccc3n2)nc2c(-c3ccccn3)csc12 [drawing 666]	76 to 100	76 to 100		
COc1cccc(-c2sc3nc(-c4nc(C)cn4C)nc(N[C@@H]4CC[C@H](OC)C4)c3c2C)c1F [drawing 761]			1 to 25	0
COC1CCN(C(=O)c2sc3nc(-c4nccn4C)nc(N[C@H]4C[C@@H](OC)C4)c3c2-c2ccccc2)C1 (stereo partly shown) [drawing 788]			0	0
CN(Cc1ccccc1)C(=O)c1nc(-c2ccccn2)nc(O)c1O [drawing 729]	1 to 25	0		
COC1CCN(c2nc(-c3nccn3C)nc3sc(-c4cnn(C)c4)c(-c4ccccc4)c23)C1 (stereo not shown) [drawing 710]	26 to 50	51 to 75		
COC1CCN(c2nc(-c3nccn3C)nc3sc(Br)c(-c4ccccc4)c23)C1 (stereo not shown) [drawing 716]	51 to 75	26 to 50		

Structure (SMILES)	inhibition at 30 µM (IL-6) [%]	inhibition at 30 µM (TNF-α) [%]	inhibition at 10 µM (IL-6) [%]	inhibition at 10 µM (TNF-α) [%]
CO[C@H]1C[C@@H](Nc2nc(-c3nccn3C)nc3sc(-c4ccn(C)n4)c(C)c23)C1 [drawing 779]			76 to 100	1 to 25
COCCNc1nc(-c2nccn2C)nc2sc(-c3cccc(OC)c3Cl)c(-c3ccc(OC)cc3)c12 [drawing 697]	26 to 50	0		
Cc1cnc(-c2nc(O)c3scc(-c4ccccn4)c3n2)n1C [drawing 671]	76 to 100	76 to 100		
COc1cccc(Oc2nc(-c3ccccn3)nc(O)c2OC)c1 [drawing 723]	76 to 100	26 to 50		
CO[C@H]1CC[C@@H](Nc2nc(-c3nccn3C)nc3sc(-c4ccn(C(C)C)n4)c(-c4ccccc4)c23)C1 [drawing 777]			76 to 100	76 to 100
O=C(NCc1ccccc1)c1nc(-c2ccccn2)nc(O)c1O [drawing 730]	76 to 100	76 to 100		
CO[C@H]1C[C@@H](Nc2nc(-c3nccn3C)nc3sc(C(=O)N4CCOCC4)c(-c4ccccc4)c23)C1 [drawing 787]			1 to 25	1 to 25
COc1ccc(-c2c(-c3cccc(OC)c3F)sc3nc(-c4nccn4C)nc(N4CCC(OC)C4)c23)cc1 (stereo not shown) [drawing 717]	76 to 100	76 to 100		
COCC(C)Nc1nc(-c2nccn2C)nc2sc(-c3cccc(OC)c3)c(-c3cscn3)c12 (stereo not shown) [drawing 693]	26 to 50	26 to 50		
Oc1nc(-c2cn3cccnc3n2)nc2c(-c3ccccn3)csc12 [drawing 674]	0	0		
COc1c(O)nc(-c2ccccn2)nc1Oc1cccnc1 [drawing 722]	51 to 75	0		
Cc1c(-c2ccn(C)n2)sc2nc(-c3nccn3C)nc(NCCCC(=O)N(C)C)c12 [drawing 782]			1 to 25	1 to 25
COc1ccc(Cn2cnc(-c3nc(O)c4scc(-c5ccccn5)c4n3)c2)cc1 [drawing 676]	76 to 100	1 to 25		
COCC(C)Nc1nc(-c2nccn2C)nc2sc(-c3ccn(C)n3)c(-c3ccccc3)c12 (stereo not shown) [drawing 679]	76 to 100	76 to 100		
Cc1cn(C)c(-c2nc(O)c3scc(-c4ccccn4)c3n2)n1 [drawing 672]	76 to 100	76 to 100		
COCC(C)Nc1nc(-c2nccn2C)nc2sc(-c3ccccc3Cl)c(-c3cscn3)c12 (stereo not shown) [drawing 691]	76 to 100	76 to 100		
Oc1nc(-c2ncc3n2CCCC3)nc2c(-c3ccccn3)csc12 [drawing 665]	76 to 100	51 to 75		
COc1cccc(Cn2ccnc2-c2nc(O)c3scc(-c4ccc(OCC(C)C)nc4)c3n2)c1 [drawing 765]			76 to 100	1 to 25

— US20250296938A1, “Compounds that Interact with the Ras Superfamily for the Treatment of Cancers, Inflammatory Diseases, Rasopathies, and Fibrotic Disease” (SHY Therapeutics, LLC, priority 2018, published 2025)
